# Values quoted from earlier work, collected in patent US20060009656A1, “METHOD OF PRODUCING BETAINE COMPOUND” (priority 2004, published 2006).
# Structures can show the parent of a compound that is named as a salt.
# Conditions: as methyl supplier in feed
smiles,measurement,setting,value
"C[N+](C)(C)CC(=O)O [Betaine anhydrous, 2-(Trimethylammonio) ethanoic acid, hydroxide, inner salt]",effective value of organism relative to 50% choline chloride,relative to 50% choline chloride,1.8 times
same,effective value of organism relative to DL-methionine,relative to DL-methionine,3 times
